pEC50: −log10 of the molar value.
Assays:
[1] = system: left atrial muscle; assay: Test Method 1: enhancement of contracting force of left atrial muscle extirpated from a guinea pig (electrically stimulated at 1 Hz); type: cell-based; settings: Cavia porcellus, Krebs-Henseleit solution 32° C.; for EC20: read-out: EC20 (molar concentration for enhancing the left atrial muscle contracting force to the level of 20%); for pEC50: read-out: EC50 (molar concentration for enhancing the left atrial muscle contracting force to the level of 50%); for EC100: read-out: EC100 (molar concentration for enhancing the left atrial muscle contracting force to the level of 100%)
[2] = system: right atrial muscle; assay: Test Method 1: enhancing rate of the pulsation of the right atrial muscle extirpated from a guinea pig; type: cell-based; settings: for enhancing rate of the pulsation of the right atrial muscle (in parentheses under EC20) / enhancing rate of the pulsation of the right atrial muscle (in parentheses under EC100) / enhancing rate of the pulsation of the right atrial muscle (in parentheses under EC50): minus values: pulsation is decreased
Method: The drug according to the present invention was evaluated with reference to the physiological activities by means of a method using an atrial muscle extirpated from a guinea pig.
Male guinea pigs having a body weight of 300-500 g were made swooned by striking his head and were bleeded to death. The heart was extirpated and the right and left atrial muscles were cut off. The tops of each atrial muscle were fixed with cerrefines. The muscle was suspended into an organ-bath in which a Krebs-Henseleit solution (at 32° C.) was filled, and a 95% O2 -5% CO2 gas was flown through the bath. The left atrial muscle was stimulated electrically at a frequency of 1 Hz to stabilize the contracting force of the left atrial muscle. Then, the compounds according to the present invention represented by the general formulae were added to the organ-bath. As for the right atrial muscle, after the pulsation was stabilized, the compounds according to the present invention were added in the organ-bath in the same manner as described above.
The compounds according to the present invention represented by the aforementioned general formulae enhanced the left atrial muscle contracting force dependent on their concentrations. The drug concentrations for enhancing the left atrial muscle contracting force to the levels of 20%, 50% and 100%, respectively are listed in Table 2. EC20, EC50 and EC100 indicate the molar concentration for enhancing the left atrial muscle contracting force to the levels of 20%, 50% and 100%, respectively. The enhancing rates of the pulsation of the right atrial muscle are also listed within parentheses. The minus values in parentheses indicate that the pulsation of the right atrial muscle is decreased.
As a control drug, theophylline ([…].

[3] = system: heart muscle; assay: Test Method 2: effect on heart muscle contracting force in an anesthetized dog (LV-dP/dtmax); type: in vivo; settings: anesthetized Beagle dogs, 1 mg/kg through a cannula inserted into vein; increasing rate, value at initiation set as 100%
Method: The compounds according to the present invention was evaluated with reference to the effect on heart muscle contracting force by means of a method using an anesthetized dog.
Beagle dogs having a body weight of 8-11 kg were used for the experiment. They were anesthetized by intraperitoneal administration of a sodium salt of pentobarbital (35 mg/kg) and, if necessary, of additional small amount of the sodium salt of pentobarbital. Anesthesia was maintained by administering the sodium salt of pentobarbital in a dose of 5 mg/kg/hour through a cannula inserted within a vein. Breathing was performed through a cannula inserted within a trachea with a respirator. The maximum accelerations of contracting the […] (LV-dp/dtmax) were measured with a pressure transducer inserted into the left ventricle. Compounds tested was administered in a dose of 1 mg/kg through a cannula inserted into the other vein. The parameters were expressed as the increasing rate (Δ%) after dosing of the drug with the value at the initiation when the drug was administered being set as 100%.

| Structure (SMILES) | EC20 [1] [µM] | pEC50 [1] | EC100 [1] [µM] | enhancing rate of the pulsation of the right atrial muscle (in parentheses under EC20) [2] [%] | enhancing rate of the pulsation of the right atrial muscle (in parentheses under EC100) [2] [%] | enhancing rate of the pulsation of the right atrial muscle (in parentheses under EC50) [2] [%] | ΔLV-dP/dtmax (%) [3] [%] | effect on heart rate (in words) ([2]; from the results of Table 2) |
| --- | --- | --- | --- | --- | --- | --- | --- | --- |
| COc1cc(C)c2[nH]ccc(=O)c2c1 [Compound 20, 6-methoxy-8-methyl-4(1H)-quinolone] | 12.4 | 4.23 | 299 | 0.2 | 5.6 | 1.8 | 41.7 |  |
| Cn1c(=O)c2[nH]cnc2n(C)c1=O [Theophylline, theophylline, reference compound] | 72.4 | 3.52 |  | 7.3 |  | 20.0 | 18.8 | increased significantly |
| CCOc1cc2[nH]c(C3CC3)cc(=O)c2cc1OC [Compound 98, 2-cyclopropyl-7-ethoxy-6-methoxy-4(1H)-quinolone] | 5.96 | 4.44 |  |  |  |  | 57.1 |  |
| CCOC(=O)c1cn(CC)c2ccc(CC)cc2c1=O [Compound 85, 1,6-diethyl-3-ethoxycarbonyl-4(1H)-quinolone] | 1.58 | 5.01 |  | -1.2 |  | -0.8 | 25.0 |  |
| COc1cc2c(=O)cc[nH]c2cc1OC(C)C [Compound 51, 7-i-propoxy-6-methoxy-4(1H)-quinolone] | 20 | 4.15 | 1000 | 6.2 | 16.5 | 16.8 | 41.2 |  |
| COc1cc2[nH]c(C3CC3)cc(=O)c2cc1OC [Compound 95, 2-cyclopropyl-6,7-dimethoxy-4(1H)-quinolone] | 1.78 | 4.74 | 94.4 | 2.8 |  | 16.3 | 46.9 |  |
| CCOc1cc2[nH]ccc(=O)c2cc1OC [Compound 62, 7-ethoxy-6-methoxy-4(1H)-quinolone] | 4.52 | 4.52 | 75 |  |  |  | 60.0 |  |
| CCOC(=O)c1c[nH]c2c(OCOC)ccc(OC)c2c1=O [Compound 5, 3-ethoxycarbonyl-5-methoxy-8-methoxymethoxy-4(1H)-quinolone] | 741 |  |  | 0.2 |  |  |  |  |

Reference: patent US5081121A, “4(1H)-quinolone derivatives” (priority 1988, dated 1992)
